This is an account of results in ChEMBL document CHEMBL1909635, “Selectivity of 3'-O-methylponkoranol for inhibition of N- and C-terminal maltase glucoamylase and sucrase isomaltase, potential therapeutics for digestive disorders or their sequelae” (Bioorg Med Chem Lett, 2011).

pKi: −log10 of the molar value.

Assay [1] can be described thus: Inhibition of human recombinant C-terminal subunit of maltase-glucoamylase-N2 by Lineweaver-Burk plot analysis.
A short description of assay [2]: Inhibition of human recombinant C-terminal subunit of maltase-glucoamylase-N20 by Lineweaver-Burk plot analysis.
Assay [3] deals with T1, Sucrase-isomaltase, intestinal (Homo sapiens, UniProt P14410). Briefly: Inhibition of human recombinant N-terminal Sucrase-isomaltase by Lineweaver-Burk plot analysis.
T1 sequence (P14410 2-1007 limits assumed): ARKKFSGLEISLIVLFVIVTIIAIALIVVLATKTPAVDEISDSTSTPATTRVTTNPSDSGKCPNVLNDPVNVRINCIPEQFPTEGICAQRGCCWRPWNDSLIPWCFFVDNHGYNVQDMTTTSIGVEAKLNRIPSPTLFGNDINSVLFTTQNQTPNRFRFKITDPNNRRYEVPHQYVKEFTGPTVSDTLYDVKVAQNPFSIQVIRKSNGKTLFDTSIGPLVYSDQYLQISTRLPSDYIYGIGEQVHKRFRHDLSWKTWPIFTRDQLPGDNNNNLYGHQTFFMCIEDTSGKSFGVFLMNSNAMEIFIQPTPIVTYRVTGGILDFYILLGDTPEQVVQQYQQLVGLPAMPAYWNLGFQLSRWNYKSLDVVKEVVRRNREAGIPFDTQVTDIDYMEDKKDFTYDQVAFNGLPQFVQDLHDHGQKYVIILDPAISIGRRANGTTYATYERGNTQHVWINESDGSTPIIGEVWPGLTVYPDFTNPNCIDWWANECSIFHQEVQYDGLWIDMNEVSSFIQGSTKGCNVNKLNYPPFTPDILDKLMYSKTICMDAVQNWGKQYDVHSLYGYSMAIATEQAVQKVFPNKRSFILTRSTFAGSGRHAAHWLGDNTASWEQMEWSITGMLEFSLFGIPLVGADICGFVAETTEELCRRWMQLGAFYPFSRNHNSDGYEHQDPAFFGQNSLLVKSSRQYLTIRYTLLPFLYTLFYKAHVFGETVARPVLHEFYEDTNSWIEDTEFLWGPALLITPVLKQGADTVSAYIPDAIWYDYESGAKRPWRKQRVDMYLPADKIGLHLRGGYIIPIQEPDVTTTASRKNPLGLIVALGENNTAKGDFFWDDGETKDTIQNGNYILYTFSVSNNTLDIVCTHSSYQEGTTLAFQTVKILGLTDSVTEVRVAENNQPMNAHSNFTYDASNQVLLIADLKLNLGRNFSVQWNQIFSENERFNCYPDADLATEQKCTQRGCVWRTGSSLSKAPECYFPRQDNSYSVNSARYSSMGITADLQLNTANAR
T1 sequence (P14410 1008-1827 limits assumed): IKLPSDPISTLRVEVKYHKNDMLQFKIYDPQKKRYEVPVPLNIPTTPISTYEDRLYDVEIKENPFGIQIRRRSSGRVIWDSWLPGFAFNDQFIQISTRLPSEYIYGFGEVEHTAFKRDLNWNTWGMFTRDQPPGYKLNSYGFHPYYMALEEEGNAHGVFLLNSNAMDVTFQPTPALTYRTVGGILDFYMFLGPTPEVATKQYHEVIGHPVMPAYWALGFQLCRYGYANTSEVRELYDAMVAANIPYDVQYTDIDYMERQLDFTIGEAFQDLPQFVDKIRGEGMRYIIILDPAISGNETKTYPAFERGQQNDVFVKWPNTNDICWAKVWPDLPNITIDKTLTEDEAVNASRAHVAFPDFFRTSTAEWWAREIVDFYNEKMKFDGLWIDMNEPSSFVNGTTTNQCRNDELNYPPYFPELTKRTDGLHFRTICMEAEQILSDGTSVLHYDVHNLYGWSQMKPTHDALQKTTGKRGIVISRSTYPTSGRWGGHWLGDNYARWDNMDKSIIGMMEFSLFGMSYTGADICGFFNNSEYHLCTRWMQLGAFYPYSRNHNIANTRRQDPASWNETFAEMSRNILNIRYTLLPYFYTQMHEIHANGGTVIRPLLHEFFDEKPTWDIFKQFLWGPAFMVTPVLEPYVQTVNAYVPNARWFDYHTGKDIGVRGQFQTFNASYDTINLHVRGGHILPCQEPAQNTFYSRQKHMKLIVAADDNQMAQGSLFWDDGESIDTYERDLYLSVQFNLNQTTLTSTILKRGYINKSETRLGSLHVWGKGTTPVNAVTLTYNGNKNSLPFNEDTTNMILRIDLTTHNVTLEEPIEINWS
Assay [4] has as its target T1, Sucrase-isomaltase, intestinal. The assay can be described thus: Inhibition of human recombinant C-terminal Sucrase-isomaltase by Lineweaver-Burk plot analysis.
For assay [5], the species on record is Homo sapiens. The assay can be described thus: Selectivity ratio of Ki for human recombinant N-terminal maltase-glucoamylase to Ki for human recombinant C-terminal subunit of maltase-glucoamylase-N20.
The species entered for assay [6] is Homo sapiens. Briefly: Selectivity ratio of Ki for human recombinant N-terminal Sucrase-isomaltase to Ki for human recombinant C-terminal Sucrase-isomaltase.
Assay [7] is filed under the species Homo sapiens. The assay can be described thus: Selectivity ratio of Ki for human recombinant N-terminal maltase-glucoamylase to Ki for human recombinant C-terminal Sucrase-isomaltase.
The species named for assay [8] is Homo sapiens. The assay can be described thus: Selectivity ratio of Ki for human recombinant N-terminal maltase-glucoamylase to Ki for human recombinant C-terminal subunit of maltase-glucoamylase-N2.

Take `OC[C@@H]1[C@@H](O)[C@H](O)C[S@@+]1C[C@@H](O)[C@@H](O)[C@H](O)[C@@H](O)CO.[Cl-]` [NEOPONKORANOL]: the Ki result in assay [1] is on record as “Not Active”. Besides, the negative logarithm of the Ki (pKi) was 7.02 in assay [2], 6.52 in assay [3] and 6.99 in assay [4].

Consider `CO[C@@H]([C@H](O)[C@@H](O)CO)[C@H](O)C[S@+]1C[C@@H](O)[C@H](O)[C@H]1CO`, for which the pKi is 7.22 in assay [1] (read-out: Ki), 7.26 in assay [2], 7.46 in assay [3] and 8.15 in assay [4]. Moreover, the Ratio Ki in assay [5] was found to be 10; in assay [6], 5; in assay [7] it was 70; in assay [8], 10.
